# Measured values reported in US4539149A, “β-Lactam antibacterial agents” (Beecham Group p.l.c., priority 1981, dated 1985).
# Where a name gives a salt, the structure may show the parent alone.
# System: P. mirabilis 889
# Assay: MIC against P. mirabilis 889
# Type: cell-based
# [1] = Proteus mirabilis, 889, P. mirabilis 889
SMILES,MIC [1] [mg/L],also measured
"CCN1CCN(C(=O)NC(C(=O)NC2(NC=O)C(=O)N3C(C(=O)[O-])=C(CSc4nnc(C)s4)CSC32)c2ccc(OC(C)=O)c(OC(C)=O)c2)C(=O)C1=O.[Na+] (stereo not drawn) [Example 68, 7β-[2-(3,4-Diacetoxyphenyl)-2-[(4-ethyl-2,3-dioxopiperazin-1-yl)carbonylamino]acetamido]-7α-formamido-3-[(2-methyl-1,3,4-thiadiazol-5-yl)thiomethyl]ceph-3-em-4-carboxylic acid, sodium salt]",–,MIC against P. mirabilis 889 (P. mirabilis 889): 0.1 mg/L
"CC1(C)S[C@H]2N(C(=O)[C@@]2(NC=O)NC(=O)COc2ccccc2)[C@H]1C(=O)O [Example 1, 6α-Formamido-6β-phenoxyacetamido penicillanic acid sodium salt]",> 100,–
"CC1(C)S[C@H]2N(C(=O)[C@@]2(NC=O)NC(=O)[C@H](NC(=O)c2cnc(NCc3ccccc3)nc2O)c2ccccc2)[C@H]1C(=O)O [Example 15, 6α-Formamido-6β-[D-2-(2-benzylamino-4-hydroxypyrimidin-5-ylcarboxamido)-2-phenylacetamido]penicillanic acid, disodium salt]",50,–
"CC(=O)OCC1=C(C(=O)O)N2C(=O)[C@@](NC=O)(NC(=O)Cc3csc(N)n3)[C@H]2SC1 [Example 46, 7β-[2-(2-Aminothiazol-4-yl)acetamido]-7α-formamidocephalosporanic acid, trifluoroacetic acid salt]",100,–
"CNC(=O)C[C@@H](N)C(=O)N[C@@H](C(=O)N[C@]1(NC=O)C(=O)N2[C@@H](C(=O)O)C(C)(C)S[C@@H]21)c1ccc(O)cc1 [Example 50, 6β-[D-2-[D-2-amino-3-(N-methylcarbamoyl)propionamido]-2-(4-hydroxyphenyl)acetamido]-6α-formamidopenicillanic acid, sodium salt]",–,"MIC (Proteus mirabilis, 889): 1 mg/L"
"CCN1CCN(C(=O)N[C@@H](C(=O)N[C@]2(NC=O)C(=O)N3C(C(=O)O)=C(COC(C)=O)CS[C@@H]32)c2cccs2)C(=O)C1=O [Example 44, 7β-[D-2-[(4-Ethyl-2,3-dioxopiperazin-1-yl)carbonylamino]-2-(thien-2-yl)acetamido]-7α-formamido-cephalosporanic acid, sodium salt]",0.1,–
"CC1(C)S[C@H]2N(C(=O)[C@@]2(NC=O)NC(=O)[C@H](NC(=O)Nc2cc3ccccc3oc2=O)c2ccc(O)cc2)[C@H]1C(=O)O [Example 47, 6β-[D-2-[3-(Coumarin-3-yl)ureido]-2-(4-hydroxyphenyl)acetamido]-6α-formamidopenicillanic acid, sodium salt]",100,–
"Cn1nnnc1SCC1=C(C(=O)O)N2C(=O)[C@@](NC=O)(NC(=O)Cc3cccs3)[C@H]2SC1 [Example 53, 7α-Formamido-7β-[2-(thien-2-yl)acetamido]-3-[(1-methyl-1H-tetrazol-5-yl)thiomethyl]ceph-3-em-4-carboxylic acid, sodium salt]",10,–
"CC1(C)S[C@H]2N(C(=O)[C@@]2(NC=O)NC(=O)[C@H](NC(=O)c2cnc3ncnn3c2O)c2ccccc2)[C@H]1C(=O)O [Example 14, 6α-Formamido-6β-[D-2-(7-hydroxy-1,2,4-triazolo[2,3-a]pyrimidin-6-ylcarboxamido)-2-phenylacetamido]penicillanic acid, disodium salt]",> 100,–
"CCN1CCN(C(=O)N[C@H](C(=O)N[C@]2(NC=O)C(=O)N3[C@@H](C(=O)O)C(C)(C)S[C@@H]32)c2cccs2)C(=O)C1=O [Example 27, 6β-[L-2-[(4-Ethyl-2,3-dioxopiperazin-1-yl)carbonylamino]-2-(thien-2-yl)acetamido]-6α-formamidopenicillanic acid sodium salt]",0.5,–
"CCN1CCN(C(=O)N[C@@H](C(=O)N[C@]2(NC=O)C(=O)N3C(C(=O)O)=C(COC(C)=O)CS[C@@H]32)c2ccccc2)C(=O)C1=O [Example 36, 7β-[D-2-[(4-Ethyl-2,3-dioxopiperazin-1-yl)carbonylamino]-2-phenylacetamido]-7α-Formamidocephalosporanic acid, sodium salt]",0.2,–
"CCN1CCN(C(=O)N[C@@H](C(=O)N[C@]2(NC=O)C(=O)N3C(C(=O)O)=C(COC(C)=O)CS[C@@H]32)c2ccc(OC(C)=O)c(OC(C)=O)c2)C(=O)C1=O [Example 41, 7β-[D-2-[(4-Ethyl-2,3-dioxopiperazin-1-yl)carbonylamino]-2-(3,4-diacetoxyphenyl)acetamido]-7α-formamidocephalosporanic acid, sodium salt]",0.1,–
"CC1(C)S[C@H]2N(C(=O)[C@@]2(NC=O)NC(=O)[C@H](NC(=O)N2CCN(S(C)(=O)=O)C2=O)c2ccccc2)[C@H]1C(=O)O [Example 12, 6α-Formamido-6β-[D-2-(3-methylsulphonyl-2-oxoimidazolidin-1-ylcarbonylamino)-2-penylacetamido]penicillanic acid, sodium salt]",0.5,–
"CC(=O)OCC1=C(C(=O)O)N2C(=O)[C@@](NC=O)(NC(=O)Cc3cccs3)[C@H]2SC1 [Example 42, 7α-Formamido-7β-(thien-2-ylacetamido)cephalosporanic acid, sodium salt]",10,–
"CCN1CCN(C(=O)NC(C(=O)N[C@]2(NC=O)C(=O)N3C(C(=O)O)=C(CSc4nnnn4C)CS[C@@H]32)c2ccc(OC(C)=O)c(OC(C)=O)c2)C(=O)C1=O (single isomer, unassigned) [Example 57 (isomer 2), 7β-[2-(3,4-Diacetoxyphenyl)-2-[(4-ethyl-2,3-dioxopiperazin-1-yl)carbonylamino]acetamido]-7α-formamido-3-[(1-methyl-1H-tetrazol-5-yl)thiomethyl]ceph-3-em-4-carboxylic acid, sodium salt, isomer 2]",0.1,–
"CC1(C)S[C@H]2N(C(=O)[C@@]2(NC=O)NC(=O)[C@H](NC(=O)Nc2cnc(Nc3ccccc3)nc2O)c2ccccc2)[C@H]1C(=O)O [Example 7, 6α-Formamido-6β-[D-2-(2-phenylamino-4-hydroxypyrimidin-5-ylureido)-2-phenylacetamido]penicillanic acid, di-sodium salt]",5,–
"CCN1CCN(C(=O)N[C@H](C(=O)N[C@]2(NC=O)C(=O)N3[C@@H](C(=O)O)C(C)(C)S[C@@H]32)c2ccc(O)c(O)c2)C(=O)C1=O [Example 58, 6β-[L-2-[(4-ethyl-2,3-dioxopiperazin-1-yl)carbonyllamino]-2-(3,4-dihydroxyphenyl)acetamido]-6α-formamidopenicillanic acid, sodium salt]",100,–
"CC(=O)OCC1=C(C(=O)O)N2C(=O)[C@@](NC=O)(NC(=O)CSCC#N)[C@H]2SC1 [Example 51, 7β-[2-(Cyanomethylthio)acetamido]-7α-formamidocephalosporanic acid, sodium salt]",25,–
"CC1(C)S[C@H]2N(C(=O)[C@@]2(NC=O)NC(=O)[C@H](NC(=O)N2CCN(S(C)(=O)=O)C2=O)c2ccc(O)cc2)[C@H]1C(=O)O [Example 24, 6α-Formamido-6β-[D-2-(4-hydroxyphenyl)-2-[(3-methylsulphonyl-2-oxoimidazolidin-1-yl)carbonylamino]acetamido]penicillanic acid, sodium salt]",0.1,–
"CCOC(=O)c1[nH]cnc1C(=O)N[C@@H](C(=O)N[C@]1(NC=O)C(=O)N2[C@@H](C(=O)O)C(C)(C)S[C@@H]21)c1ccc(O)cc1 [Example 25, 6β-[D-2-[(5-Ethoxycarbonylimadazol-4-yl)carbonylamino]-2-(4-hydroxyphenyl)acetamido]-6α-formamidopenicillanic acid, sodium salt]",10,–
"CC(=O)Oc1ccc([C@@H](N)C(=O)N[C@]2(NC=O)C(=O)N3[C@@H](C(=O)O)C(C)(C)S[C@@H]32)cc1OC(C)=O [Example 64, 6β-[D-2-Amino-2-(3,4-diacetoxyphenyl)acetamido]-6α-formamido penicillanic acid]",100,–
"Cc1ccc2c(O)c(C(=O)N[C@@H](C(=O)N[C@]3(NC=O)C(=O)N4[C@@H](C(=O)O)C(C)(C)S[C@@H]43)c3ccc(O)cc3)cnc2n1 [Example 49, 6α-Formamido-6β-[D-2-[(4-hydroxy-7-methyl-1,8-naphthyridin-3-yl)carbonylamino]-2-(4-hydroxyphenyl)acetamido]penicillanic acid, sodium salt]",5,–
"CCN1CCN(C(=O)N[C@@H](C(=O)N[C@]2(NC=O)C(=O)N3[C@@H](C(=O)O)C(C)(C)S[C@@H]32)c2ccccc2)C(=O)C1=O [Example 4, 6α-Formamido-6β-[D-2-[(4-ethyl-2,3-dioxopiperazin-1-yl)carbonylamino]-2-phenylacetamido]penicillanic acid, sodium salt]",0.2,–
"CC(=O)OCC1=C(C(=O)O)N2C(=O)[C@@](NC=O)(NC(=O)[C@H](NC(=O)N3CCN(S(C)(=O)=O)C3=O)c3ccccc3)[C@H]2SC1 [Example 38, 7α-Formamido-7β-[D-2-[[3-(methylsulphonyl)-2-oxoimidazolidin-1-yl]carbonylamino]-2-phenylacetamido]cephalosporanic acid, sodium salt]",1,–
"CN(C(=O)C=Cc1ccccc1)C(=O)N[C@@H](C(=O)N[C@]1(NC=O)C(=O)N2[C@@H](C(=O)O)C(C)(C)S[C@@H]21)c1ccccc1 [Example 10, 6α-Formamido-6β-[D-2-(3-cinnamoyl-3-methylureido)-2-phenylacetamido]penicillanic acid, sodium salt]",1,–
"CN(C(=O)N[C@@H](C(=O)N[C@]1(NC=O)C(=O)N2[C@@H](C(=O)O)C(C)(C)S[C@@H]21)c1ccccc1)C(=O)c1cccs1 [Example 13, 6α-Formamido-6β-[D-2-[3-methyl-3-(2-thienylcarbonyl)ureido]-2-phenylacetamido]penicillanic acid, sodium salt]",2.5,–
"CC1(C)S[C@H]2N(C(=O)[C@@]2(NC=O)NC(=O)[C@H](NC(=O)N2CCNC2=O)c2ccc(O)cc2)[C@H]1C(=O)O [Example 16, 6α-Formamido-6β-[D-2-(2-oxoimidazolidin-1-ylcarbonylamino)-2-(4-hydroxyphenyl)acetamido]penicillanic acid, sodium salt]",0.5,–
